Measurements published in patent US20100112042A1, “Processes and Compositions for Liposomal and Efficient Delivery of Gene Silencing Therapeutics” (MDRNA, INC., priority 2008, published 2010).
Where no end group is shown, it is not given here.

What was measured:
[1] = system: dsRNA; experiment: SYBR-GOLD Dye Binding Assay (peptide binding to RNAi-inducing agent); conditions: FIG. 6; dsRNA 10 μg/ml, 10 mM hepes/5% dextrose pH 7.4
Procedure: The relative strength of the binding of a cationic peptide to an RNAi-inducing agent was measured with a dye binding assay.
The RNAi-inducing agent was prepared at 7.8 μl in 10 ml to make a 20 μg/ml stock, then 75 μl/well. A SYBR gold dilution was prepared at 3.75 μl in 15 ml for 1:4000 dilution for a 2.5× stock.
Peptides were dissolved in Hepes buffer with 5% dextrose and diluted. Peptides were further diluted so that 75 μl could be added to each well resulting in the desired N:P (ranging from 0-4). Peptides were assumed to have a purity of 50%, but actual peptide amount was unknown.
A SYBR-GOLD Dye Binding Assay was performed. A 96-well plate assay with sample volume of 150 μl per well. Final dsRNA concentration was 10 μg/ml in 10 mM hepes/5% dextrose at pH 7.4. Peptides were diluted into different working solutions such that equal volumes were added to reach different N/P ratios. For the addition procedure, dsRNA was first added (75 μl of 20 μg/ml), followed by […] of 2.5×SYBR Gold. Peptide ([…]) was then added to compete off the SYBR dye. Total volume was […]. Fluorescence was corrected from background of dye alone in buffer. SYBR-Gold ex/em was 495 nm/537 nm, read on Molecular Devices plate reader.

[2] = system: Cyclophilin B (PPIB); experiment: In vitro assay for PPIB gene expression knockdown in A549 cells; type: cell-based, human; conditions: for Knockdown (%) (vs dsRNA control): A549 cells, dsRNA DC4377 100 nM; for Knockdown (%) vs control / Knockdown (%) vs untransf: dsRNA DX4221 100 nM
Procedure: Cyclophilin B (PPIB) gene knockdown measurements can be used as a primary activity-based in vitro assay for interfering RNA delivery formulations. Typically, the measurements were made as described below, with minor variations.
Cyclophilin B (PPIB) gene expression knockdown was measured in A549 human alveolar basal epithelial cells. For PPIB gene knockdown measurements, A549 cells were transfected with an interfering RNA formulation, total RNA prepared 24 hours after transfection, and PPIB mRNA assayed by RT-PCR. QRT-PCR of 36B4 (acidic ribosomal phosphoprotein PO) mRNA expression was performed for normalization.
A549 cells were seeded at 7,500 cells/well (96-well) and incubated overnight in medium. Confluency was about 50% at the time of transfection. Transfection complex was prepared by adding an interfering RNA to medium (OptiMEM™) and vortexing, separately adding a delivery formulation to medium (OptiMEM™) and vortexing, and finally mixing the interfering RNA in medium with the delivery formulation in medium and incubating 20 minutes at room temperature to make the transfection complex. The medium for incubated cells was replaced with fresh OptiMEM™ and transfection complex was added to each well. Cells were incubated for 5 hrs at 37° C. and 5% CO2, then complete medium was added (to a final fetal bovine serum concentration 10%) and incubation continued until 24 hours post-transfection.
For PPIB gene knockdown cells were lysed and RNA prepared (Invisorb RNA Cell HTS 96-Kit/C, Invitek, Berlin, or RNeasy 96 Kit, Qiagen). Quantitative RT-PCR was performed using One-Step qRT-PCR kit (Invitrogen) on a DNA Engine Opticon2 thermal cycler (BioRad).
Primers used for PPIB were: […]

[3] = endosomolytic agent PN3033, binary N/P 5, final N/P 2.5
[4] = endosomolytic agent none, binary N/P 5
[5] = endosomolytic agent PN3033, binary N/P 4, final N/P 2.5
[6] = endosomolytic agent PN3033, binary N/P 4, final N/P 3.5
[7] = endosomolytic agent PN3033, binary N/P 5, final N/P 3.5
[8] = endosomolytic agent PN3033, binary N/P 5, final N/P 4.5

| Sequence | binding to dsRNA (ability to displace SYBR-Gold dye) [1] | Knockdown (%) (vs dsRNA control) [2, 3] | Knockdown (%) (vs dsRNA control) ([2]; endosomolytic agent PN3033, binary N/P 10, final N/P 5) | Knockdown (%) (vs dsRNA control) [2, 4] | Knockdown (%) vs control [2, 5] [%] | Knockdown (%) vs untransf [2, 5] [%] | Knockdown (%) vs control [2, 6] [%] | Knockdown (%) vs untransf [2, 6] [%] | Knockdown (%) vs control [2, 3] [%] | Knockdown (%) vs untransf [2, 3] [%] | Knockdown (%) vs control [2, 7] [%] | Knockdown (%) vs untransf [2, 7] [%] | Knockdown (%) vs control [2, 8] [%] | Knockdown (%) vs untransf [2, 8] [%] | Knockdown (%) vs control [2, 4] [%] | Knockdown (%) vs untransf [2, 4] [%] |
| --- | --- | --- | --- | --- | --- | --- | --- | --- | --- | --- | --- | --- | --- | --- | --- | --- |
| RRRRRCCRRRRR (cysteine pairing not given here; also: dimer) [PN3499, dimer peptide containing a total of 10 arginines] | strongest binding |  |  |  |  |  |  |  |  |  |  |  |  |  |  |  |
| WWHHKKRRCCRRKKHHWW [PN4110, triggered release peptide] |  | 65 | 63 | 0 | 50 | 55 | 41 | 36 | 72 | 70 | 74 | 72 | 36 | 40 | 14 | 11 |
